Reference: patent US11122789B2, “Termite preferred resource compositions and methods” (priority 2015, dated 2021)
Like-named read-outs stand apart in the source and are kept apart here.

Columns and labels:
Type in all cases: in vivo
[1] = tested on: Coptotermes formosanus; conditions: for % Mortality: 0.15 % v/v on ground Sabal palm; for INSECT ACTIVIIS 0-4: scale 0 death, 4 normal behaviour
Procedure: (§1) Bioassay tubes were loaded with 0.2 g of finely ground Sabal palm materials into microtubes. One mL of dilute active ingredient (described below) was applied to the tube and fully absorbed by the palm materials. The tubes were placed in petri dishes on a 3 mm sand base. Thirty to forty workers and soldiers from the field-collected Reticulitermes and Coptotermes colonies were introduced to the petri dishes. Termite activity was evaluated on a 0-4 scale, with 0 denoting death and 4 indicating normal behaviour. Mortality was recorded weekly for up to 9 weeks, depending on survivorship.

[2] = tested on: Reticulitermes flavipes; conditions: for % Mortality: 0.15 % v/v on ground Sabal palm; for INSECT ACTIVIIS 0-4: scale 0 death, 4 normal behaviour
Procedure: as §1

[3] = tested on: Reticulitermes flavipes; conditions: 10 ppmai; 2 DA-A
[4] = 7.5 ppmai on ground Sabal palm, 5 DA-A
[5] = 75 ppmai on ground Sabal palm, 5 DA-A
[6] = 150 ppmai on ground Sabal palm, 5 DA-A
[7] = 300 ppmai on ground Sabal palm, 5 DA-A

COC(=O)N(C(=O)N1CO[C@@]2(C(=O)OC)Cc3cc(Cl)ccc3C2=N1)c1ccc(OC(F)(F)F)cc1 [Indoxacarb] was tested, and the “% MORT” value [1, 4] was 0%, the “% MORT” value ([1]; 7.5 ppmai on ground Sabal palm, 7 DA-A) was 0% and the “% MORT” value ([1]; 7.5 ppmai on ground Sabal palm, 12 DA-A) was 0%. The “% MORT” value ([1]; 7.5 ppmai on ground Sabal palm, 20 DA-A) was 2.5%, the “% MORT” value ([1]; 7.5 ppmai on ground Sabal palm, 28 DA-A) was 5% and the “% MORT” value ([1]; 7.5 ppmai on ground Sabal palm, 42 DA-A) was 90%. The “% MORT” value [1, 5] was 0.013%, the “% MORT” value ([1]; 75 ppmai on ground Sabal palm, 7 DA-A) was 0.038% and the “% MORT” value ([1]; 75 ppmai on ground Sabal palm, 12 DA-A) was 11.68%. For the same compound, the “% MORT” value ([1]; 75 ppmai on ground Sabal palm, 20 DA-A) was 35%, the “% MORT” value ([1]; 75 ppmai on ground Sabal palm, 28 DA-A) was 93.8% and the “% MORT” value ([1]; 75 ppmai on ground Sabal palm, 42 DA-A) was 100%. The “% MORT” value [1, 6] was 0%, the “% MORT” value ([1]; 150 ppmai on ground Sabal palm, 7 DA-A) was 0.013% and the “% MORT” value ([1]; 150 ppmai on ground Sabal palm, 12 DA-A) was 17.48%. For the same compound, the “% MORT” value ([1]; 150 ppmai on ground Sabal palm, 20 DA-A) was 37.5%, the “% MORT” value ([1]; 150 ppmai on ground Sabal palm, 28 DA-A) was 98.8% and the “% MORT” value ([1]; 150 ppmai on ground Sabal palm, 42 DA-A) was 100%. For the same compound, the “% MORT” value [1, 7] was 0%, the “% MORT” value ([1]; 300 ppmai on ground Sabal palm, 7 DA-A) was 0% and the “% MORT” value ([1]; 300 ppmai on ground Sabal palm, 12 DA-A) was 17.5%. The “% MORT” value ([1]; 300 ppmai on ground Sabal palm, 20 DA-A) was 93.8%, the “% MORT” value ([1]; 300 ppmai on ground Sabal palm, 28 DA-A) was 100% and the “% MORT” value ([1]; 300 ppmai on ground Sabal palm, 42 DA-A) was 100%. The “% MORT” value ([2]; 7.5 ppmai on ground Sabal palm, 3 DA-A) was 9.66%, the “% MORT” value [2, 4] was 56.71% and the “% MORT” value ([2]; 7.5 ppmai on ground Sabal palm, 10 DA-A) was 99.79%. The “% MORT” value ([2]; 75 ppmai on ground Sabal palm, 3 DA-A) was 16.59%, the “% MORT” value [2, 5] was 87.91% and the “% MORT” value ([2]; 75 ppmai on ground Sabal palm, 10 DA-A) was 100%. The “% MORT” value ([2]; 150 ppmai on ground Sabal palm, 3 DA-A) was 22.94%, the “% MORT” value [2, 6] was 87.84% and the “% MORT” value ([2]; 150 ppmai on ground Sabal palm, 10 DA-A) was 100%. For the same compound, the “% MORT” value ([2]; 300 ppmai on ground Sabal palm, 3 DA-A) was 47.09%, the “% MORT” value [2, 7] was 98.42% and the “% MORT” value ([2]; 300 ppmai on ground Sabal palm, 10 DA-A) was 100%.
For CNC(=O)c1cc(C#N)cc(C)c1NC(=O)c1cc(Br)nn1-c1ncccc1Cl [Cyantraniliprole], the “% MORT” value ([1]; 5 ppmai on ground Sabal palm, 5 DA-A) was 0.5%, the “% MORT” value ([1]; 5 ppmai on ground Sabal palm, 11 DA-A) was 1.2% and the “% MORT” value ([1]; 5 ppmai on ground Sabal palm, 19 DA-A) was 1.2%. For the same compound, the “% MORT” value ([1]; 5 ppmai on ground Sabal palm, 37 DA-A) was 1.2%, the “% MORT” value ([1]; 50 ppmai on ground Sabal palm, 5 DA-A) was 3.9% and the “% MORT” value ([1]; 50 ppmai on ground Sabal palm, 11 DA-A) was 100%. For the same compound, the “% MORT” value ([1]; 50 ppmai on ground Sabal palm, 19 DA-A) was 100%, the “% MORT” value ([1]; 50 ppmai on ground Sabal palm, 37 DA-A) was 100% and the “% MORT” value ([1]; 100 ppmai on ground Sabal palm, 5 DA-A) was 49.3%. The “% MORT” value ([1]; 100 ppmai on ground Sabal palm, 11 DA-A) was 100%, the “% MORT” value ([1]; 100 ppmai on ground Sabal palm, 19 DA-A) was 100% and the “% MORT” value ([1]; 100 ppmai on ground Sabal palm, 37 DA-A) was 100%. For the same compound, the “% MORT” value ([1]; 200 ppmai on ground Sabal palm, 5 DA-A) was 80.1%, the “% MORT” value ([1]; 200 ppmai on ground Sabal palm, 11 DA-A) was 100% and the “% MORT” value ([1]; 200 ppmai on ground Sabal palm, 19 DA-A) was 100%. The “% MORT” value ([1]; 200 ppmai on ground Sabal palm, 37 DA-A) was 100%.
For O=C(NC(=O)c1c(F)cccc1F)Nc1cc(Cl)c(OC(F)(F)C(F)C(F)(F)F)cc1Cl (stereo not shown) [Lufenuron], the “% Mortality” value ([1]; 4 DA-A) was 4.38%, the “% Mortality” value ([1]; 7 DA-A) was 7.5% and the “% Mortality” value ([1]; 11 DA-A) was 14.38%. For the same compound, the “% Mortality” value ([1]; 18 DA-A) was 21.25%, the “% Mortality” value ([1]; 25 DA-A) was 45% and the “% Mortality” value ([1]; 32 DA-A) was 93.8%. For the same compound, the “% Mortality” value ([1]; 41 DA-A) was 100%, the “% Mortality” value ([2]; 4 DA-A) was 11.25% and the “% Mortality” value ([2]; 7 DA-A) was 50%. The “% Mortality” value ([2]; 11 DA-A) was 51.25%, the “% Mortality” value ([2]; 18 DA-A) was 51.25% and the “% Mortality” value ([2]; 25 DA-A) was 51.88%. The “% Mortality” value ([2]; 32 DA-A) was 68.75%, the “% Mortality” value ([2]; 41 DA-A) was 70.63% and the “% Mortality” value ([2]; 53 DA-A) was 86.25%. The “% Mortality” value ([2]; 63 DA-A) was 96.25%.
With CNC(=O)c1cc(Cl)cc(C)c1NC(=O)c1cc(Br)nn1-c1ncccc1Cl [Chlorantraniliprole] the “TUNNEL LENGTH” value [3] was 4 CM, the “TUNNEL LENGTH” value ([1]; 1 ppmai, 2 DA-A) was 4 CM and the “INSECT ACTIVIIS 0-4” value ([1]; 1 ppmai, 2 DA-A) was 3.3 0-4. For the same compound, the “INSECT % MORTAL” value ([1]; 1 ppmai, 7 DA-A) was 5.4%, the “INSECT ACTIVIIS 0-4” value ([1]; 1 ppmai, 7 DA-A) was 3.8 0-4 and the “INSECT % MORTAL” value ([1]; 1 ppmai, 9 DA-A) was 2.3%. For the same compound, the “INSECT % MORTAL” value ([1]; 1 ppmai, 20 DA-A) was 93.4%, the “INSECT ACTIVIIS 0-4” value ([1]; 1 ppmai, 20 DA-A) was 0.5 0-4 and the “TUNNEL LENGTH” value ([1]; 10 ppmai, 2 DA-A) was 4 CM. For the same compound, the “INSECT ACTIVIIS 0-4” value ([1]; 10 ppmai, 2 DA-A) was 4 0-4, the “INSECT % MORTAL” value ([1]; 10 ppmai, 7 DA-A) was 1.3% and the “INSECT ACTIVIIS 0-4” value ([1]; 10 ppmai, 7 DA-A) was 3.3 0-4. For the same compound, the “INSECT % MORTAL” value ([1]; 10 ppmai, 9 DA-A) was 1.5%, the “INSECT % MORTAL” value ([1]; 10 ppmai, 20 DA-A) was 91.1% and the “INSECT ACTIVIIS 0-4” value ([1]; 10 ppmai, 20 DA-A) was 0.8 0-4. The “TUNNEL LENGTH” value ([1]; 50 ppmai, 2 DA-A) was 1 CM, the “INSECT ACTIVIIS 0-4” value ([1]; 50 ppmai, 2 DA-A) was 1.5 0-4 and the “INSECT % MORTAL” value ([1]; 50 ppmai, 7 DA-A) was 23.2%. For the same compound, the “INSECT ACTIVIIS 0-4” value ([1]; 50 ppmai, 7 DA-A) was 1 0-4, the “INSECT % MORTAL” value ([1]; 50 ppmai, 9 DA-A) was 90.8% and the “INSECT % MORTAL” value ([1]; 50 ppmai, 20 DA-A) was 100%. For the same compound, the “INSECT ACTIVIIS 0-4” value ([1]; 50 ppmai, 20 DA-A) was 0 0-4, the “TUNNEL LENGTH” value ([1]; 100 ppmai, 2 DA-A) was 1.5 CM and the “INSECT ACTIVIIS 0-4” value ([1]; 100 ppmai, 2 DA-A) was 1 0-4. The “INSECT % MORTAL” value ([1]; 100 ppmai, 7 DA-A) was 60.5%, the “INSECT ACTIVIIS 0-4” value ([1]; 100 ppmai, 7 DA-A) was 1 0-4 and the “INSECT % MORTAL” value ([1]; 100 ppmai, 9 DA-A) was 98.3%. For the same compound, the “INSECT % MORTAL” value ([1]; 100 ppmai, 20 DA-A) was 100%, the “INSECT ACTIVIIS 0-4” value ([1]; 100 ppmai, 20 DA-A) was 0 0-4 and the “TUNNEL LENGTH” value ([2]; 1 ppmai, 2 DA-A) was 4 CM. For the same compound, the “INSECT ACTIVIIS 0-4” value ([2]; 1 ppmai, 2 DA-A) was 4 0-4, the “INSECT % MORTAL” value ([2]; 1 ppmai, 7 DA-A) was 0.8% and the “INSECT ACTIVIIS 0-4” value ([2]; 1 ppmai, 7 DA-A) was 4 0-4. The “INSECT % MORTAL” value ([2]; 1 ppmai, 9 DA-A) was 2.4%, the “INSECT % MORTAL” value ([2]; 1 ppmai, 20 DA-A) was 4.1% and the “INSECT ACTIVIIS 0-4” value ([2]; 1 ppmai, 20 DA-A) was 4 0-4. The “INSECT ACTIVIIS 0-4” value ([2]; 10 ppmai, 2 DA-A) was 3.3 0-4, the “INSECT % MORTAL” value ([2]; 10 ppmai, 7 DA-A) was 0.2% and the “INSECT ACTIVIIS 0-4” value ([2]; 10 ppmai, 7 DA-A) was 4 0-4. The “INSECT % MORTAL” value ([2]; 10 ppmai, 9 DA-A) was 0.5%, the “INSECT % MORTAL” value ([2]; 10 ppmai, 20 DA-A) was 4.92% and the “INSECT ACTIVIIS 0-4” value ([2]; 10 ppmai, 20 DA-A) was 4 0-4. The “TUNNEL LENGTH” value ([2]; 50 ppmai, 2 DA-A) was 2 CM, the “INSECT ACTIVIIS 0-4” value ([2]; 50 ppmai, 2 DA-A) was 2.3 0-4 and the “INSECT % MORTAL” value ([2]; 50 ppmai, 7 DA-A) was 13%. For the same compound, the “INSECT ACTIVIIS 0-4” value ([2]; 50 ppmai, 7 DA-A) was 2 0-4, the “INSECT % MORTAL” value ([2]; 50 ppmai, 9 DA-A) was 94.7% and the “INSECT % MORTAL” value ([2]; 50 ppmai, 20 DA-A) was 100%. The “INSECT ACTIVIIS 0-4” value ([2]; 50 ppmai, 20 DA-A) was 0 0-4, the “TUNNEL LENGTH” value ([2]; 100 ppmai, 2 DA-A) was 1 CM and the “INSECT ACTIVIIS 0-4” value ([2]; 100 ppmai, 2 DA-A) was 1.3 0-4. The “INSECT % MORTAL” value ([2]; 100 ppmai, 7 DA-A) was 15%, the “INSECT ACTIVIIS 0-4” value ([2]; 100 ppmai, 7 DA-A) was 1 0-4 and the “INSECT % MORTAL” value ([2]; 100 ppmai, 9 DA-A) was 100%. The “INSECT % MORTAL” value ([2]; 100 ppmai, 20 DA-A) was 100% and the “INSECT ACTIVIIS 0-4” value ([2]; 100 ppmai, 20 DA-A) was 0 0-4.
